Assay results reported in patent US11779602B2, “Methods of use for CAR T cells” (ENDOCYTE, INC., priority 2018, dated 2023).

Assays:
[1] = system: FR+ cell lines (MDA-MB-231, KB, HOS-FRα, THP1-FRβ, OV90); test: Co-culture at 10 nM EC17, varying E/T ratios: specific lysis and Th1 cytokines; type: cell-based, human; details: 10 nM EC17, ≥1:1 E/T ratios, 48 hours
Procedure: (§1) After 24 hours of co-culture, supernatants were harvested to determine tumor cell killing. To study the kinetics of T cell activation and FR correlation in vitro (FIGS. 60A-L), co-cultures were carried out in FR+/− cell lines at varying E/T ratios (1:27, 1:9, 1:3, 1:1, 3:1) in the continuous presence of 10 nM EC17. The kinetics of tumor cell killing were quantified after 16 and 48 hours of co-culture. Meanwhile, a portion of the supernatants was taken after 44 hours of co-culture for measurement of IFNγ, IL-2 and TNFα. Using Promega's CytoTox 96® LDH assay kit, target cell killing was quantified and expressed as specific lysis (%) which was normalized to basal levels in the absence of EC17 at defined E/T ratios. The LEGENDplex™ human Th1 cytokine panel (BioLegend, San Diego, Calif.) was used to determine CAR-T cell derived cytokines.
Specific lysis (%) was quantified after 16 and 48 hours of co-culture, and Th1 cytokines (IFNγ, IL-2, TNFα) in culture media were measured after 44 hours of co-culture. […] It generally took a longer time (48 hours) and a higher E/T ratio (≥1:1) to see significant activity in the lowest FR-expressing OV90 cells (FIGS. 60A-G). The high FR-expressing KB cells responded […] to cause significant cell death (FIG. 60F). […]

FR-negative HOS-143b = test: Co-culture at 10 nM EC17, varying E/T ratios: specific lysis; type: cell-based, human; details: 10 nM EC17, 48 hours
Procedure: as §1
Specific lysis (%) was quantified after 16 and 48 hours of co-culture, and Th1 cytokines (IFNγ, IL-2, TNFα) in culture media were measured after 44 hours of co-culture. […] It generally took a longer time (48 hours) and a higher E/T ratio (≥1:1) to see significant activity in the lowest FR-expressing OV90 cells (FIGS. 60A-G). The high FR-expressing KB cells responded […] to cause significant cell death (FIG. 60F).

MDA-MB-231 tumor = test: Kinetics of CAR-T cell expansion and tumor uptake in MDA-MB-231 tumor bearing mice; type: in vivo
Procedure: When the tumor sizes averaged at ˜350±60 mm^3 on day 2, up to […] of EC17 at 500 nmol/kg were given on days 2, 9, 16, 23, and 30. For ex-vivo analysis, 3 animals were taken before the next EC17 dose on days 9, 16, 23, and 30 for a total of 4 collections. For comparison, the same EC17 dose was given to 3 CAR-T mice that had ˜4.4× larger tumor sizes on day 2 (˜1555±79 mm^3). For each collection, fresh blood and tumor samples (if available) were analyzed for the presence of human CD3ε+EGFRt+ CAR-T cells by flow cytometry.
The dynamic interplay between EC17 and CAR-T cells in vivo was further analyzed using MDA-MB-231 tumor model, which was previously found to be among the highest FR expressing tumors at 103±15 pmol/mg membrane protein using a ^3H-FA-based radioligand binding assay. […] Seven days following a single EC17 dose (i.e., study day 9), human CD3ε+EGFRt+ CAR-T cells were detected in the blood of mice, with elevated numbers circulating in mice bearing larger tumors (FIGS. 62B-E). […]
For CAR-T cell analysis in the circulation, plasma was removed from a predetermined volume of whole blood collected into tubes containing ethylenediaminetetraacetic acid anticoagulant. […] A minimum of 20,000 propidium iodide negative live cell events were collected on the Gallios flow cytometer and analyzed with the Kaluza software, version 2.1 (Beckman Coulter, Brea, Calif.). […]

Structure (SMILES): NC1=NC2N=CC(CNc3ccc(C(=O)N[C@@H](CCC(=O)NCCNC(=S)Nc4ccc(-c5c6ccc(=O)cc-6oc6cc(O)ccc56)c(C(=O)O)c4)C(=O)O)cc3)=NC2C(=O)N1 (stereo partly shown) [EC17, FA-(γ)-ethylenediamine-FITC]
- specific lysis response [1]: all FR+ cancer cells responded after 48 hours of co-culture
- specific lysis response (FR-negative HOS-143b): essentially unharmed
- onset of tumor response (MDA-MB-231 tumor; EC17 500 nmol/kg weekly, ~4.8 million E2-CAR-T cells): started to respond after the second EC17 dose
- body weight loss (MDA-MB-231 tumor; after EC17 administration, especially after the third dose): mild body weight loss
